Numbers after ± are expanded uncertainties.
Assay: an = ratio of the nth substance listed
Conditions: 308.15 K, 100 kPa, Liquid; for speed of sound: Single path-length method; for mass density: Vibrating tube method

Row | Compound | speed of sound (a1 = 0.05) | speed of sound (a1 = 0.1) | speed of sound (a1 = 0.15) | mass density (a1 = 0.05) | mass density (a1 = 0.1) | mass density (a1 = 0.15) | speed of sound (a1 = 0.075) | mass density (a1 = 0.075)
1 | CCO [ethanol] + O | 1542.9 ± 0.6 m/s | 1559.2 ± 0.6 m/s | 1590.4 ± 0.6 m/s | 990.6 ± 10 kg/m3 | 982.8 ± 10 kg/m3 | 971.7 ± 10 kg/m3 | – | –
2 | CO [methanol] + O | 1533.2 ± 0.5 m/s | 1543.5 ± 0.5 m/s | 1566.7 ± 0.5 m/s | 988.6 ± 10 kg/m3 | 980.6 ± 10 kg/m3 | 971 ± 10 kg/m3 | – | –
3 | CC(C)O [propan-2-ol] + O | 1551.7 ± 0.6 m/s | 1569.7 ± 0.6 m/s | – | 993.1 ± 10 kg/m3 | 987.6 ± 10 kg/m3 | – | 1566.2 ± 0.6 m/s | 991.8 ± 10 kg/m3

— the NIST ThermoML archive (doi:10.1021/acs.jced.8b00723)
